Target: T1, Escherichia coli transketolase (TK) (Escherichia coli, UniProt P27302)
T1 construct: gene tktA; homodimer of 70- to 74-kDa monomers; holo enzyme with ThDP and Mg2+
Assay: steady-state enzyme kinetics
Format: biochemical
Conditions: 50 mM Li-HPA (lithium beta-hydroxypyruvate, saturating), 4-80 mM glycolaldehyde

T1 sequence (P27302 2-663): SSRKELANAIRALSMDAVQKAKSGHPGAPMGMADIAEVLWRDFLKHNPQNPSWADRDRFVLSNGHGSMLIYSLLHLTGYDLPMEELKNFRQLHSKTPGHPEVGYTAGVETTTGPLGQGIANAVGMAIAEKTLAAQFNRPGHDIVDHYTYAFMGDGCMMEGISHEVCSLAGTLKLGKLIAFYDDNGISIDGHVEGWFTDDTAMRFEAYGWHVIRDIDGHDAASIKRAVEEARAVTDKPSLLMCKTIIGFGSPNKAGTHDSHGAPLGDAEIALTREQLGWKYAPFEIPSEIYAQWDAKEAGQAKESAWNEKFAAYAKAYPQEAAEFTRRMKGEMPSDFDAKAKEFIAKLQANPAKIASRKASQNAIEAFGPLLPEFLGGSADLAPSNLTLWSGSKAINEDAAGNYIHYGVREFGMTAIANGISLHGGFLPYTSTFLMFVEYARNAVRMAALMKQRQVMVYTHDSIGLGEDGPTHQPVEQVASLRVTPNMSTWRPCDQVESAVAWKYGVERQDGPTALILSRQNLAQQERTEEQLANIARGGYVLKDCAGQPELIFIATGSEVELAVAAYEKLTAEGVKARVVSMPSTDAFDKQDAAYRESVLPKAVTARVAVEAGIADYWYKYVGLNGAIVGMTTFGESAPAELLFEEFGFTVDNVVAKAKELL

Km: 20.3 mM
Compound: O=CCO [glycolaldehyde]

From PMC6255212, “Coupled molecular dynamics mediate long- and short-range epistasis between mutations that affect stability and aggregation kinetics” (Proceedings of the National Academy of Sciences of the …, 2018)
